Experimental data reported in the supplement of paper PMC6315032.

Key:
Assay in all cases: apparent dissociation constant (pKDapp, Kinobeads competition, Cheng-Prusoff corrected) (-log10 M); higher = tighter binding
[1] = biological target: ABL1 (UniProt P00519); settings: affinity matrix / lysate: Kinobeads, mixed HEK293/K-562/placenta lysate
[2] = biological target: ACVR1B (UniProt P36896); settings: affinity matrix / lysate: Kinobeads, mixed HEK293/K-562/placenta lysate
[3] = biological target: AURKB (UniProt Q96GD4); settings: affinity matrix / lysate: Kinobeads, mixed HEK293/K-562/placenta lysate
[4] = biological target: AXL (UniProt P30530); settings: affinity matrix / lysate: Kinobeads, mixed HEK293/K-562/placenta lysate
[5] = biological target: BCR (UniProt P11274); settings: affinity matrix / lysate: Kinobeads, mixed HEK293/K-562/placenta lysate
[6] = biological target: CHUK (UniProt O15111); settings: affinity matrix / lysate: Kinobeads, mixed HEK293/K-562/placenta lysate
[7] = biological target: CLK1 (UniProt P49759); settings: affinity matrix / lysate: Kinobeads, mixed HEK293/K-562/placenta lysate
[8] = biological target: CRKRS (UniProt Q9NYV4); settings: affinity matrix / lysate: Kinobeads, mixed HEK293/K-562/placenta lysate
[9] = biological target: CSNK2A2 (UniProt P19784)
[10] = biological target: DAPK1 (UniProt P53355); settings: affinity matrix / lysate: Kinobeads, mixed HEK293/K-562/placenta lysate
[11] = biological target: EIF2AK1 (UniProt Q9BQI3); settings: affinity matrix / lysate: Kinobeads, mixed HEK293/K-562/placenta lysate
[12] = biological target: EPHA7 (UniProt Q15375); settings: affinity matrix / lysate: Kinobeads, mixed HEK293/K-562/placenta lysate
[13] = biological target: EPHB3 (UniProt P54753); settings: affinity matrix / lysate: Kinobeads, mixed HEK293/K-562/placenta lysate
[14] = biological target: HIPK3 (UniProt Q9H422); settings: affinity matrix / lysate: Kinobeads, mixed HEK293/K-562/placenta lysate
[15] = biological target: INSR (UniProt P06213); settings: affinity matrix / lysate: Kinobeads, mixed HEK293/K-562/placenta lysate
[16] = biological target: KDR (UniProt P35968); settings: affinity matrix / lysate: Kinobeads, mixed HEK293/K-562/placenta lysate
[17] = biological target: LATS1 (UniProt O95835); settings: affinity matrix / lysate: Kinobeads, mixed HEK293/K-562/placenta lysate
[18] = biological target: MAP3K2 (UniProt Q9Y2U5); settings: affinity matrix / lysate: Kinobeads, mixed HEK293/K-562/placenta lysate
[19] = biological target: MASTL (UniProt Q96GX5); settings: affinity matrix / lysate: Kinobeads, mixed HEK293/K-562/placenta lysate
[20] = biological target: NEK2 (UniProt P51955); settings: affinity matrix / lysate: Kinobeads, mixed HEK293/K-562/placenta lysate
[21] = biological target: NEK3 (UniProt P51956); settings: affinity matrix / lysate: Kinobeads, mixed HEK293/K-562/placenta lysate
[22] = biological target: PCTK1 (UniProt Q00536); settings: affinity matrix / lysate: Kinobeads, mixed HEK293/K-562/placenta lysate
[23] = biological target: PIK3CB (UniProt P42338); settings: affinity matrix / lysate: Lipid Kinobeads, mixed HeLa/Jurkat/K-562 lysate
[24] = biological target: PIM1 (UniProt P11309); settings: affinity matrix / lysate: Kinobeads, mixed HEK293/K-562/placenta lysate
[25] = biological target: PIP4K2C (UniProt Q8TBX8); settings: affinity matrix / lysate: Kinobeads, mixed HEK293/K-562/placenta lysate
[26] = biological target: PLK4 (UniProt O00444); settings: affinity matrix / lysate: Kinobeads, mixed HEK293/K-562/placenta lysate
[27] = biological target: PRKG1 (UniProt Q13976); settings: affinity matrix / lysate: Kinobeads, mixed HEK293/K-562/placenta lysate
[28] = biological target: PRKX (UniProt P51817); settings: affinity matrix / lysate: Kinobeads, mixed HEK293/K-562/placenta lysate
[29] = biological target: RPS6KA1 (UniProt Q15418); settings: affinity matrix / lysate: Kinobeads, mixed HEK293/K-562/placenta lysate
[30] = biological target: SIK2 (UniProt Q9H0K1); settings: affinity matrix / lysate: Kinobeads, mixed HEK293/K-562/placenta lysate
[31] = biological target: STK17A (UniProt Q9UEE5); settings: affinity matrix / lysate: Kinobeads, mixed HEK293/K-562/placenta lysate
[32] = biological target: TAOK2 (UniProt Q9UL54); settings: affinity matrix / lysate: Kinobeads, mixed HEK293/K-562/placenta lysate
[33] = biological target: TTK (UniProt P33981); settings: affinity matrix / lysate: Kinobeads, mixed HEK293/K-562/placenta lysate
[34] = affinity matrix / lysate: Kinobeads, mixed HEK293/K-562/placenta lysate
[35] = affinity matrix / lysate: Lipid Kinobeads, mixed HeLa/Jurkat/K-562 lysate

Measured: apparent dissociation constant (-log10 M)

COc1ccc(-c2ccc3c(N4CCOC[C@@H]4C)nc(N4CCOC[C@@H]4C)nc3n2)cc1CO [AZD8055]
< 6: [1] | [2] | [3] | [4] | [5] | [6] | [7] | [8] | [9]; [34] | [9]; [35] | [10] | [11] | [12] | [13] | [14] | [15] | [16] | [17] | [18] | [19] | [20] | [21] | [22] | [23] | [24] | [25] | [26] | [27] | [28] | [29] | [30] | [31] | [32] | [33]

CCNC(=O)Nc1ccc(-c2nc(N3CCOC[C@@H]3C)c3c(n2)C(C)(C)S(=O)(=O)C3)cc1 [CZ415]
< 6: [1] | [2] | [3] | [4] | [5] | [6] | [7] | [8] | [9]; [34] | [9]; [35] | [10] | [11] | [12] | [13] | [14] | [15] | [16] | [17] | [18] | [19] | [20] | [21] | [22] | [23] | [24] | [25] | [26] | [27] | [28] | [29] | [30] | [31] | [32] | [33]
